Assay [1] relates to SK-MEL-28 tumor cells. The assay can be described thus: Cell growth inhibition assay (CellTiter-Glo), SK-MEL-28.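 Note: luminescent total ATP as a proxy for cell number, threefold serial dilutions at 0.2% DMSO, percent growth inhibition versus DMSO vehicle control wells.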 The note with it: Homo sapiens, SK-MEL-28, 72 h, read-out: Activity in SK-MEL-28 Tumor Cells. (In general: ATP-based viability assays read luminescence as a measure of living cells.)
The target in assay [2] is B-Raf (Homo sapiens, UniProt P15056). Kind of assay: B-Raf Accelerated MEK ATPase assay (BRAMA). The following applies: BRAMA enzyme assay; class by pIC50; read-out: B-Raf Activity. Type of assay: biochemical. The method in brief: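 B-Raf activity read as intrinsic MEK ATPase: catalytic activated RAF with non-phosphorylated MEK drives ADP formation, coupled through pyruvate kinase and lactate dehydrogenase to NADH oxidation, independent of ERK phosphorylation.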

Assay [3] relates to Colo205 tumor cells. The assay can be described thus: Cell growth inhibition assay (CellTiter-Glo), Colo205.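 Note: growth measured via total ATP luminescence (CellTiter-Glo) as a proxy for cell number, inhibition expressed against DMSO-treated control wells, 3-day exposure at 0.2% final DMSO.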 The note with it: Homo sapiens, COLO 205, 72 h, read-out: Activity in Colo205 Tumor Cells.
The subject of assay [4] is SK-MEL-3 tumor cells. Kind of assay: Cell growth inhibition assay (CellTiter-Glo), SK-MEL-3.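 Note: human melanoma cells grown with compound for 3 days in 0.2% DMSO, total ATP read by luminescence as proxy for cell number, growth inhibition versus DMSO-treated wells.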 The following applies: Homo sapiens, SK-MEL3, 72 h, read-out: Activity in SK-MEL-3 Tumor Cells.
Protocol: (§1) Cell Growth Inhibition Assays Human colon tumor cells (Colo205) were cultured in RPMI (Mediatech 50-020-PB) containing 10% FBS and 1% penicillin-streptomycin. […] Human melanoma cancer cells (A375-F11S) were cultured in RPMI (Mediatech 50-020-PB) containing 10% FBS, 1% sodium pyruvate, and 1% penicillin-streptomycin. Human colon cancer cells (HT-29) were cultured in high glucose DMEM (Mediatech 50-013-PB) containing 10% FBS and 1% penicillin-streptomycin. Human melanoma cancer cells (SK-MEL-3) were cultured in McCoy's 5A (50-025-PB) containing 15% FBS, and 1% penicillin-streptomycin. All cell lines were maintained at 37° C. in a humidified 5% CO2, 95% air incubator.
(§2) The next day, compounds were diluted as follows: For 96-well assays, 13.5 μl of compound in DMSO were diluted using nine (9) serial 1:3 dilutions of 4.5 μl in 9 μl of DMSO. Medium (270 μl/well of RPMI with 10% FBS and 1% penicillin-streptomycin) was added to the plates. Aliquots (7 μl) were added to cells in the final assay giving a final DMSO concentration of 0.2%. For 384-well assays, 15 μl of compound in DMSO were diluted using nine (9) serial 1:3 dilutions of 5 μl in 10 μl of DMSO, followed by a further dilution of 5 μl of compound with 95 μl of medium, of which 2 μl are added to cells in the final assay giving a final DMSO concentration of 0.2%. Cells were incubated at 37° C., 5% CO2 for 3 days.
(§3) Total ATP was measured (as a surrogate estimate of cell number) using CellTiter-Glo® (Promega G7571) reagent. Briefly, plates were removed from the incubator and allowed to equilibrate to room temperature for 30 minutes. CellTiter-Glo® (25 μl or 55 μl for 384-well or 96-well assays, respectively) reagent was added to each well and plates were shaken on an orbital plate shaker for 2 minutes. Plates were incubated without shaking for a further 30 minutes and read on an LJL Analyst GT reader in luminometer mode with an integration time of 0.5 seconds per well. Percent inhibition of cell growth was calculated relative to DMSO vehicle-treated control wells.
Assay [5] concerns A375P tumor cells. The assay can be described thus: Cell growth inhibition assay (CellTiter-Glo), A375P.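 Note: total ATP luminescence used as proxy for cell number, serial threefold compound dilutions at 0.2% DMSO, growth inhibition expressed versus DMSO vehicle-treated wells.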 The note with it: Homo sapiens, 72 h, read-out: Activity in A375P Tumor Cells.
In assay [6] the test system is HT-29 tumor cells. The assay can be described thus: Cell growth inhibition assay (CellTiter-Glo), HT-29.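 Note: ATP content read by luminescence as proxy for cell number, growth inhibition versus DMSO vehicle wells, 0.2% DMSO final, nine serial threefold compound dilutions.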 The following applies: Homo sapiens, HT-29, 72 h, read-out: Activity in HT-29 Tumor Cells.
Protocol: as §1, §2, §3

SMILES strings stand for the structures. Structures can show the parent of a compound that is named as a salt.

Chain of B-Raf (P15056 whole entry): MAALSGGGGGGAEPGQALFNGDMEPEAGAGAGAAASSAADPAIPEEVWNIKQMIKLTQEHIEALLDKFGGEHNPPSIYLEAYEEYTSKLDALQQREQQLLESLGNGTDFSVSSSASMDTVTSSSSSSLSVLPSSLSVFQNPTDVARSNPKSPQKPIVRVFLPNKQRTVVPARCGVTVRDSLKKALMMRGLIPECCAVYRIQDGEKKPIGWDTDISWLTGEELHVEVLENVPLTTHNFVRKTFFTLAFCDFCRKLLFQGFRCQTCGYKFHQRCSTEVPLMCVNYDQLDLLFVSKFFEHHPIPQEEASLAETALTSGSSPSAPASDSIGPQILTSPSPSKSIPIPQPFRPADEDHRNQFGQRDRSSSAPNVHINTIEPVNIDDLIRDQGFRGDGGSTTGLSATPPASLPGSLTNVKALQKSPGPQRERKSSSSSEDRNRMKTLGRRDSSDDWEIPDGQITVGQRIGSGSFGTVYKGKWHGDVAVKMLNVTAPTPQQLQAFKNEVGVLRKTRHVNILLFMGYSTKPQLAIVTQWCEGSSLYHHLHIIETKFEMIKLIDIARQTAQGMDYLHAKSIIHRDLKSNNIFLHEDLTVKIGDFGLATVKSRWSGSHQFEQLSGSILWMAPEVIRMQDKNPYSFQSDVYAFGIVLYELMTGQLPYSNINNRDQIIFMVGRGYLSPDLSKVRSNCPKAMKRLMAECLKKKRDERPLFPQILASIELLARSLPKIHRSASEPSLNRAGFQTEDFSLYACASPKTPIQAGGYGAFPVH

Consider `CCNc1nc(-c2cc(OC)cc(OC)c2)c(-c2ccnc(Nc3ccc(N4CCS(=O)(=O)CC4)c(F)c3)n2)s1` [Example 9, 4-[4-[3,5-Bis(methyloxy)phenyl]-2-(ethylamino)-1,3-thiazol-5-yl]-N-[4-(1,1-dioxido-4-thiomorpholinyl)-3-fluorophenyl]-2-pyrimidinamine], for which the IC50 in assay [1] was less than 500 nM; in assay [2], less than 100 nM; in assay [3], 500 to 5000 nM; in assay [4] it was less than 500 nM; in assay [5] it was 500 to 5000 nM; in assay [6], less than 500 nM.
With `CCNc1nc(-c2cc(OC)cc(OC)c2)c(-c2ccnc(Nc3ccc(OC4CCN(CCS(C)(=O)=O)CC4)c(OC)c3)n2)o1` [Example 95], the IC50 was 500 to 5000 nM in assay [1]; less than 100 nM in assay [2]; 500 to 5000 nM in assay [3]; 500 to 5000 nM in assay [4]; 500 to 5000 nM in assay [5]; 500 to 5000 nM in assay [6].
On to `COCCN1CCN(c2ccc(Nc3nccc(-c4sc(NC5CC5)nc4-c4cc(OC)cc(OC)c4)n3)cn2)CC1` [Example 18, 4-[4-[3,5-Bis(methyloxy)phenyl]-2-(cyclopropylamino)-1,3-thiazol-5-yl]-N-(6-{4-[2-(methyloxy)ethyl]-1-piperazinyl}-3-pyridinyl)-2-pyrimidinamine], for which the IC50 in assay [1] is less than 500 nM; in assay [2], less than 100 nM; in assay [3], less than 500 nM; in assay [4] it was less than 500 nM; in assay [5], less than 500 nM; in assay [6], less than 500 nM.
`CCNc1nc(-c2cc(OC)ccn2)c(-c2ccnc(Nc3ccc(OCCN4CCCC4)c(Cl)c3)n2)s1` [Example 57, N-(3-Chloro-4-{[2-(1-pyrrolidinyl)ethyl]oxy}phenyl)-4-{2-(ethylamino)-4-[4-(methyloxy)-2-pyridinyl]-1,3-thiazol-5-yl}-2-pyrimidinamine]: the IC50 in assay [1] was 500 to 5000 nM; in assay [2], less than 100 nM; in assay [3], 500 to 5000 nM; in assay [4] it was less than 500 nM; in assay [5] it was less than 500 nM; in assay [6], less than 500 nM.
In the case of `COc1cc(OC)cc(-c2nc(NC3CC3)sc2-c2ccnc(Nc3ccc4c(c3)CN(C)CC4)n2)c1` [Example 15, N-{4-[4-[3,5-Bis(methyloxy)phenyl]-2-(cyclopropylamino)-1,3-thiazol-5-yl]-2-pyrimidinyl}-2-methyl-1,2,3,4-tetrahydro-7-isoquinolinamine], the IC50 in assay [1] was 500 to 5000 nM; in assay [2], less than 100 nM; in assay [3] it was 500 to 5000 nM; in assay [4], less than 500 nM; in assay [5], 500 to 5000 nM; in assay [6], 500 to 5000 nM.
As to `COc1cccc(-c2nc(CO)sc2-c2ccnc(Nc3ccc(OCCN4CCCC4)c(F)c3)n2)c1` [Example 60, {5-{2-[(3-Fluoro-4-{[2-(1-pyrrolidinyl)ethyl]oxy}phenyl)amino]-4-pyrimidinyl}-4-[3-(methyloxy)phenyl]-1,3-thiazol-2-yl}methanol], the IC50 is 500 to 5000 nM in assay [1]; less than 100 nM in assay [2]; less than 500 nM in assay [3]; less than 500 nM in assay [4]; 500 to 5000 nM in assay [5]; less than 500 nM in assay [6].
Regarding `CCNc1nc(-c2cc(C)cc(OC)c2)c(-c2ccnc(Nc3ccc(N4CCN(CCS(C)(=O)=O)CC4)c(F)c3)n2)o1` [Example 127], the IC50 in assay [1] is less than 500 nM; in assay [2] it was less than 100 nM; in assay [3], less than 500 nM; in assay [4], less than 500 nM; in assay [5], 500 to 5000 nM; in assay [6], less than 500 nM.
For `CCNc1nc(-c2cc(C)cc(OC)c2)c(-c2ccnc(Nc3ccc(N4CCN(C)CC4)c(OC)c3)n2)s1` [Example 33, 4-{2-(Ethylamino)-4-[3-methyl-5-(methyloxy)phenyl]-1,3-thiazol-5-yl}-N-[3-(methyloxy)-4-(4-methyl-1-piperazinyl)phenyl]-2-pyrimidinamine], the IC50 in assay [1] was less than 500 nM; in assay [2] it was less than 100 nM; in assay [3], less than 500 nM; in assay [4] it was less than 500 nM; in assay [5] it was less than 500 nM; in assay [6] it was less than 500 nM.
Regarding `CCNc1nc(-c2cc(C)cc(OC)c2)c(-c2ccnc(Nc3ccc4c(c3)CS(=O)(=O)C4)n2)s1` [Example 14, N-(2,2-Dioxido-1,3-dihydro-2-benzothien-5-yl)-4-{2-(ethylamino)-4-[3-methyl-5-(methyloxy)phenyl]-1,3-thiazol-5-yl}-2-pyrimidinamine], the IC50 in assay [1] is 500 to 5000 nM; in assay [2], less than 100 nM; in assay [3] it was less than 500 nM; in assay [4] it was less than 500 nM; in assay [5], less than 500 nM; in assay [6], less than 500 nM.
Turning to `COc1cc(C)cc(-c2nc(C(C)C)oc2-c2ccnc(Nc3ccc(N4CCN(C(C)=O)CC4)nc3)n2)c1` [Example 98], the IC50 in assay [1] is 500 to 5000 nM; in assay [2], less than 100 nM; in assay [3] it was less than 500 nM; in assay [4], less than 500 nM; in assay [5] it was 500 to 5000 nM; in assay [6], 500 to 5000 nM.
`CCc1nc(-c2cccc(CO)c2)c(-c2ccnc(Nc3ccc(N4CCOCC4)c(F)c3)n2)s1` [Example 67, {3-[2-Ethyl-5-(2-{[3-fluoro-4-(4-morpholinyl)phenyl]amino}-4-pyrimidinyl)-1,3-thiazol-4-yl]phenyl}methanol]: the IC50 in assay [1] is 500 to 5000 nM; in assay [2], less than 100 nM; in assay [3] it was 500 to 5000 nM; in assay [4], less than 500 nM; in assay [5] it was less than 500 nM; in assay [6], less than 500 nM.
On to `CCNc1nc(-c2cc(C)cc(OC)c2)c(-c2ccnc(Nc3ccc(N4CCOCC4)c(C(F)(F)F)c3)n2)s1` [Example 25, 4-{2-(Ethylamino)-4-[3-methyl-5-(methyloxy)phenyl]-1,3-thiazol-5-yl}-N-[4-(4-morpholinyl)-3-(trifluoromethyl)phenyl]-2-pyrimidinamine], for which the IC50 in assay [1] is 500 to 5000 nM; in assay [2], less than 100 nM; in assay [3], 500 to 5000 nM; in assay [4], less than 500 nM; in assay [5], less than 500 nM; in assay [6], less than 500 nM.
On to `CCNc1nc(-c2cc(OC)cc(OC)c2)c(-c2ccnc(Nc3ccc(N4CCN(CCO)CC4)nc3)n2)o1` [Example 108], for which the IC50 in assay [1] was 500 to 5000 nM; in assay [2], less than 100 nM; in assay [3], less than 500 nM; in assay [4] it was 500 to 5000 nM; in assay [5] it was 500 to 5000 nM; in assay [6], 500 to 5000 nM.
Consider `COc1cc(OC)cc(-c2nc(NC3CC3)sc2-c2ccnc(Nc3ccc(OCCN(C)C)c(Cl)c3)n2)c1` [Example 105], for which the IC50 in assay [1] was less than 500 nM; in assay [2] it was less than 100 nM; in assay [3], less than 500 nM; in assay [4], less than 500 nM; in assay [5] it was less than 500 nM; in assay [6] it was less than 500 nM.
`CCNc1nc(-c2cc(OC)cc(OC)c2)c(-c2ccnc(Nc3ccc(OC4CCN(CCF)CC4)c(OC)c3)n2)o1` [Example 96]: the IC50 was 500 to 5000 nM in assay [1]; less than 100 nM in assay [2]; 500 to 5000 nM in assay [3]; 500 to 5000 nM in assay [4]; 500 to 5000 nM in assay [5]; 500 to 5000 nM in assay [6].
In the case of `CCNc1nc(-c2cc(C)cc(OC)c2)c(-c2ccnc(Nc3ccc(OC4CCN(CCS(C)(=O)=O)CC4)c(F)c3)n2)s1` [Example 32, 4-{2-(Ethylamino)-4-[3-methyl-5-(methyloxy)phenyl]-1,3-thiazol-5-yl}-N-[3-fluoro-4-({1-[2-(methylsulfonyl)ethyl]-4-piperidinyl}oxy)phenyl]-2-pyrimidinamine], the IC50 was less than 500 nM in assay [1]; less than 100 nM in assay [2]; less than 500 nM in assay [3]; less than 500 nM in assay [4]; less than 500 nM in assay [5]; less than 500 nM in assay [6].
`CCc1nc(-c2cc(CO)cc(OC)c2)c(-c2ccnc(Nc3ccc(N4CCN(C(C)=O)CC4)nc3)n2)s1` [Example 65, [3-[5-(2-{[6-(4-Acetyl-1-piperazinyl)-3-pyridinyl]amino}-4-pyrimidinyl)-2-ethyl-1,3-thiazol-4-yl]-5-(methyloxy)phenyl]methanol]: the IC50 in assay [1] is 500 to 5000 nM; in assay [2] it was less than 100 nM; in assay [3], 500 to 5000 nM; in assay [4], 500 to 5000 nM; in assay [5] it was 500 to 5000 nM; in assay [6] it was 500 to 5000 nM.
In the case of `COc1cc(OC)cc(-c2nc(NC3CC3)sc2-c2ccnc(Nc3ccc(OCCN4CCCC4=O)c(F)c3)n2)c1` [Example 16, 1-(2-{[4-({4-[4-[3,5-Bis(methyloxy)phenyl]-2-(cyclopropylamino)-1,3-thiazol-5-yl]-2-pyrimidinyl}amino)-2-fluorophenyl]oxy}ethyl)-2-pyrrolidinone trifluoroacetate], the IC50 in assay [1] was 500 to 5000 nM; in assay [2], less than 100 nM; in assay [3], 500 to 5000 nM; in assay [4], less than 500 nM; in assay [5] it was 500 to 5000 nM; in assay [6] it was less than 500 nM.

The values are drawn from patent publication US20110190280A1, “Thiazole And Oxazole Kinase Inhibitors” (priority 2007, published 2011).
